Holding throughout (assay type): in vivo
Test [1] relates to Oats. Nature of the test: Field post-emergence test, oats. Particulars: 2 lbs/acre, reading 0 (no effect) to 10 (completely killed), the values are: rating score 0–10. Here is the method:
(§1) Forty rows, 70 feet long, were planted to weeds and crops. Two rows were planted on each bed. Beds were 40 inches apart from center to center. The two rows were about 10 inches apart on each. Beds were rolled prior to planting to provide a uniform smooth surface. Soil temperature at a depth of 11/2 inches was 66° F. at time of planting. Post-emergence applications were made by spraying bands across rows 10 feet wide using a self-propelled plot sprayer with a 10 foot boom equipped with Teejet 8001 flat spray nozzle tips and operated at 40 psi. A total of 84 fluid ounces of spray material was applied to three replicates. Each replicate plot was 10 feet wide by 66.67 feet long.
(§2) Eight days after the application, readings were made on the effect of the chemicals on each crop and weed in the post-emergence treatment. A reading of 0 was recorded if no effect was observed; 10 recorded if the plants were completely killed, and readings of 1 to 9 for intermediate kills. A second reading of the post-emergence treatments was made 14 days after the application.

In test [2] the test system is Sinapis. Put plainly: Field pre-emergence test, Sinapis. Particulars: reading 0 (no effect) to 10 (completely killed), the values are: rating score 0–10. Here is the method: as §1
(§3) An additional 100 feet of crops and weeds shown in TABLES XIII and XIV were planted in the same manner as the above post-emergence plots. Soil temperature at planting was […] at a depth of 11/2 inches. […]
as §2
(§4) Readings were made 14 and 20 days after the pre-emergence application.

Test [3] concerns Wheat. Put plainly: Field pre-emergence test, wheat. Particulars: reading 0 (no effect) to 10 (completely killed), the values are: rating score 0–10. Here is the method: as §1, §3, §2, §4
For another test, the system named is crops and weed species. Nature of the test: Pre- and post-emergence herbicide tests, overall assessment. Particulars: TABLES III-VI. Here is the method: All crop and weed species were planted individually in 3" plastic pots containing potting soil. Four seeds each of corn, cotton, and snapbeans were seeded to a depth equal to the diameter of the seed. All other species were surface seeded and sprinkled with screened soil in an amount sufficient to cover the seed. Immediately after planting, all pots were watered by sub-irrigation in greenhouse trays. Pots for the pre-emergence phase were seeded one day before treatment.
Planting dates for the post-emergence phase were varied so that all seedlings would reach the desired stage of development simultaneously. The proper stage of seedling development for treatment in the post-emergence phase is as follows:
Compounds were tested at rates of application equivalent to 8 lbs. of actual compound per acre in a spray volume of 38 gallons per acre. Spray hood constants required to deliver the above volume are as follows:
Spray applications were made in a hood containing a removable belt and fixed spray nozzle. For passage through the spray hood, one pot of each specie (pre-emergence phase) was placed on the rear half of the flat. Treatments were removed to the greenhose after spraying. Watering during the observation period was done only by sub-irrigation.
Two weeks after treatment, pre- and post-emergence injury or control was visually rated, and the results were as shown in the following tables. Pre-emergence data are provided in TABLE III and post-emergence data are provided in TABLE IV, for compounds having the formula illustrated in TABLE I. Correspondingly, pre-emergence and post-emergence data, respectively, are set forth in TABLES V AND VI, for compounds having the formula illustrated in TABLE II.

Test [4] has as its system Wheat. Put plainly: Field post-emergence test, wheat. Particulars: 2 lbs/acre, reading 0 (no effect) to 10 (completely killed), the values are: control rating (0–10 scale). As for the experimental part: as §1, §2
The test system of test [5] is Oats. Nature of the test: Field pre-emergence test, oats. Particulars: reading 0 (no effect) to 10 (completely killed), the values are: rating score 0–10. Here is the method: as §1, §3, §2, §4
Test [6] relates to Sinapis. Put plainly: Field post-emergence test, Sinapis. Particulars: 2 lbs/acre, reading 0 (no effect) to 10 (completely killed), the values are: rating score 0–10. As for the experimental part:
as §1, §2

As for `CNC(=O)Nc1nnc(C(F)(F)F)s1` [Example 1, 1-Methyl-3-[5-Trifluoromethyl-2-(1,3,4-Thiadiazolyl)] Urea], the POST-EMERGENCE ACTIVITY, % CONTROL turned out to be 9 in the test on Oats [1], 10 in the test with Wheat [4] and 10 in the test on Sinapis [6]. Further, the PRE-EMERGENCY ACTIVITY, % CONTROL with Sinapis [2] (1 lbs/acre), in the test with Sinapis [2] (2 lbs/acre), in the test with Wheat [3] (1 lbs/acre), in the test with Wheat [3] (2 lbs/acre), in the test with Oats [5] (1 lbs/acre) and in the test with Oats [5] (2 lbs/acre) was 10 each time. The “effectiveness applied to a variety of crops and weed species” value (from here on “effectiveness applied to a variety”) in the test on crops and weed species is “extremely effective”. As to `CN(C)C(=O)Nc1nnc(C(F)(F)F)s1` [Example 2, 1,1-Dimethyl-3-[5-Trifluoromethyl-2-(1,3,4-Thiadiazolyl)] Urea], the “effectiveness applied to a variety” value in the test on crops and weed species is “extremely effective”. `CSc1nnc(N(C)C(=O)N(C)C)s1` [Example 5, 1,1,3-trimethyl-3-[5-methylthio-3-(1,3,4-thiadiazolyl)] urea]: the “effectiveness applied to a variety” value with crops and weed species is “extremely effective”. On to `CCNC(=O)Nc1nnc(C(F)(F)F)s1` [Example 9], for which the “selectivity when applied to a certain crop or weed species” value (from here on “selectivity when applied”) in the test on crops and weed species is reported as “more selective”. With `C=CCNC(=O)Nc1nnc(C(F)(F)F)s1` [Example 12], in the test on crops and weed species, the “selectivity post-emergence versus pre-emergence” value is “control post-emergence growth, while have little effect in regard to pre-emergence”.

As to `O=C(Nc1ccc(Cl)cc1)Nc1nnc(C(F)(F)F)s1` [Example 15], the “selectivity when applied” value in the test with crops and weed species is on record as “more selective”. On the same count and under the same terms, the entry for `O=C(Nc1ccc(Cl)c(Cl)c1)Nc1nnc(C(F)(F)F)s1` [Example 16] is “more selective”.

On to `Cc1nnc(NC(=O)N(C)C)s1` [Example 19], for which the “selectivity post-emergence versus pre-emergence” value with crops and weed species is listed as “The converse of this relationship”.

As for `CCc1nnc(NC(=O)N(C)C)s1` [Example 20], in the test on crops and weed species, the “selectivity when applied” value was “more selective”. Consider `CNC(=O)Nc1nnc(CC(C)C)s1` [Example 21], for which the “selectivity when applied” value with crops and weed species was “more selective”. On to `CNC(=O)Nc1nnc(COC)s1` [Example 25], for which the “selectivity when applied” value in the test on crops and weed species is listed as “more selective”. As for `CNC(=O)Nc1nnc(SC)s1` [Example 26], the “effectiveness applied to a variety” value with crops and weed species is “extremely effective”. For the molecule `CNC(=O)Nc1nncs1` [Example 35], the “selectivity when applied” value in the test on crops and weed species is “more selective”. Turning to `CNC(=O)N(C)c1nnc(C(F)(F)F)s1` [Example 36], in the test on crops and weed species, the “effectiveness applied to a variety” value is on record as “extremely effective”.

Take `CCN(C(=O)NC)c1nnc(C(F)(F)F)s1` [Example 37]: the “effectiveness applied to a variety” value with crops and weed species is recorded as “extremely effective”.

For the origin of these results see patent US5087284A, “5-substituted thiadiazole ureas and their use as herbicides” (Rhone-Poulenc, Inc., priority 1989, dated 1992).
